Patent publication EP4644401A1, “ALLULOSE SYRUP WITH IMPROVED PROPERTY” (Samyang Corporation, priority 2022, dated 2024)
≈ marks a conversion by molar mass, not a printed value.

Assay: Solubility analysis of allulose dimer crystals in water
Type: physicochemical
Conditions: water as solvent, solvent temperature 25°C

solubility: 340 mg/mL (≈ 1890 mM)
Compound: O=C(CO)[C@H](O)[C@H](O)[C@H](O)CO [allulose]
